The test system of one test is HT-1197 cells. Description: Cell-based assay: anti-proliferative activity, Cell Counting Kit-8, 72 hours (HT-1197, negative control without MELK expression). The conditions noted are these: Homo sapiens, HT1197, 72 h, HT1197 cells (negative control, no MELK expression), 72 hours. A digest of the protocol:
(§1)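 Cellular growth is read by CCK-8 colorimetric kit 72 h after inhibitor addition to seeded cells, and IC50 values are derived from the resulting data; MELK protein levels in these lines are checked beforehand by immunoblotting whole crude lysate.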
A general note: Tetrazolium dyes change colour on reduction, which living cells bring about.

In the next test the target is MELK (Homo sapiens, UniProt Q14680). Briefly: Kinase assay: MELK activity, phosphorylation of FITC-labeled histone H3 peptide measured by IMAP fluorescence polarization. The class given is biochemical. The note with it: read-out: IC50 (μM) (kinase assay). A digest of the protocol:
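FP readout: FITC-histone H3 peptide phosphorylation, read 0.5 h (RT) after stopping with 3x volume of IMAP progressive binding solution. Final DMSO 1%.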

The next test has as its system T47D cells. Description: Cell-based assay: anti-proliferative activity, Cell Counting Kit-8, 72 hours (T47D). The note with it: Homo sapiens, T47D, 72 h. In a few lines:
as §1

The next test relates to A549 cells. Briefly: Cell-based assay: anti-proliferative activity, Cell Counting Kit-8, 72 hours (A549). The note with it: Homo sapiens, A549, 72 h, 72 hours. A digest of the protocol: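 A549 cells were seeded in 96-well plates and exposed to candidate inhibitors for 72 hours. Cell growth was then measured with Cell Counting Kit-8, and IC50 values were calculated from the resulting growth data.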

The test system of a further test is DU4475 cells. Description: Cell-based assay: anti-proliferative activity, Cell Counting Kit-8, 72 hours (DU4475). The note with it: Homo sapiens, DU-4475, 72 h.

The structures appear in SMILES notation.

A word on the IC50: it is the concentration that gives 50% inhibition.

Chain of MELK (Q14680 whole entry, looked up): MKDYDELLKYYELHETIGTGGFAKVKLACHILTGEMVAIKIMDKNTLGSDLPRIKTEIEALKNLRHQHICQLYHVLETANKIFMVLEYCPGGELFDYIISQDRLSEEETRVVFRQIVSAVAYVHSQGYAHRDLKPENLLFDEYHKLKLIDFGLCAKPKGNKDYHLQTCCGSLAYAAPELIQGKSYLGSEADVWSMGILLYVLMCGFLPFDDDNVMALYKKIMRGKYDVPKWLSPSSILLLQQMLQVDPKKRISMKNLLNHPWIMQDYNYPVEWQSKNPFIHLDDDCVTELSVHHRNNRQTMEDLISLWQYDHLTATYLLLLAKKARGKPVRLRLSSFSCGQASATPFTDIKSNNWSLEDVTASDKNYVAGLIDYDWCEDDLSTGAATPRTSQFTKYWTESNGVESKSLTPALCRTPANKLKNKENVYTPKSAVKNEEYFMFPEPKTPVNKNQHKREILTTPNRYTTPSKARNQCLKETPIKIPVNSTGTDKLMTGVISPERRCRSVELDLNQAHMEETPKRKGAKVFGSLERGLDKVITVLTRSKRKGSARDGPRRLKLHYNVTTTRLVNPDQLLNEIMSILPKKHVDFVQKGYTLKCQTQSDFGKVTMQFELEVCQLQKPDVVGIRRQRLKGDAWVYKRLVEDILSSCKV

As for `CC(C)C(=O)c1cnc2ccc(-c3cc(F)c(O)c(Cl)c3)cc2c1Nc1ccc(N2CCNCC2)nc1` [Example 674, 1-(6-(3-chloro-5-fluoro-4-hydroxyphenyl)-4-(6-(piperazin-1-yl)pyridin-3-ylamino)quinolin-3-yl)-2-methylpropan-1-one], the IC50 with HT-1197 cells came to 2.4 µM; on MELK, 0.0069 µM; in the test with T47D cells, 0.11 µM; in the test with A549 cells, 0.46 µM; in the test with DU4475 cells, 0.15 µM.
Taken in the same sequence, the figures for `COc1cc(-c2ccc3ncc(C(=O)C4CC4)c(Nc4ccc(NCCO)nc4)c3c2)cc(Cl)c1O` [Example 677, (6-(3-chloro-4-hydroxy-5-methoxyphenyl)-4-(6-(2-hydroxyethylamino)pyridin-3-ylamino)quinolin-3-yl)(cyclopropyl)methanone] were 1.5 µM, 0.014 µM, 0.33 µM, 0.36 µM and 0.38 µM.
Taken in the same sequence, the figures for `O=C(c1cnc2ccc(-c3cc(Cl)c(O)c(Cl)c3)cc2c1Nc1ccc(NCCO)nc1)C1CC1` [Example 678, cyclopropyl(6-(3,5-dichloro-4-hydroxyphenyl)-4-(6-(2-hydroxyethylamino)pyridin-3-ylamino)quinolin-3-yl)methanone] were 5.1 µM, 0.011 µM, 0.41 µM, 1.2 µM and 0.11 µM.
Taken in the same sequence, the figures for `O=C(c1cnc2ccc(-c3cc(F)c(O)c(Cl)c3)cc2c1Nc1ccc(NCCO)nc1)C1CC1` [Example 679, (6-(3-chloro-5-fluoro-4-hydroxyphenyl)-4-(6-(2-hydroxyethylamino)pyridin-3-ylamino)quinolin-3-yl)(cyclopropyl)methanone] were 3.7 µM, 0.03 µM, 0.23 µM, 1.3 µM and 0.12 µM.
For the compound `COc1cc(-c2ccc3ncc(C(=O)C(C)C)c(Nc4ccc(N5CCNCC5)nc4)c3c2)cc(Cl)c1O` [Example 680, 1-(6-(3-chloro-4-hydroxy-5-methoxyphenyl)-4-(6-(piperazin-1-yl)pyridin-3-ylamino)quinolin-3-yl)-2-methylpropan-1-one], the IC50 in the test with HT-1197 cells was 2.4 µM; on MELK it was 0.011 µM; in the test on T47D cells it was 0.59 µM; in the test on A549 cells, 1.3 µM; in the test with DU4475 cells, 1 µM.
`CC(=O)c1cnc2ccc(-c3cc(Cl)c(O)c(Cl)c3)cc2c1Nc1ccc(N2CCCC(N)C2)nc1` (centres unmarked) [Example 681, 1-(4-(6-(3-aminopiperidin-1-yl)pyridin-3-ylamino)-6-(3,5-dichloro-4-hydroxyphenyl)quinolin-3-yl)ethanone]: the half-maximal inhibitory concentration (IC50) in the test on HT-1197 cells worked out at 0.25 µM; on MELK, 0.00086 µM; in the test with T47D cells, 0.0046 µM; in the test on A549 cells it was 0.017 µM; in the test with DU4475 cells it was 0.0085 µM.
Regarding `CN1CCN(Cc2ccc(Nc3c(C(=O)C4CC4)cnc4ccc(-c5cc(Cl)c(O)c(Cl)c5)cc34)cn2)CC1` [Example 682, cyclopropyl(6-(3,5-dichloro-4-hydroxyphenyl)-4-(6-((4-methylpiperazin-1-yl)methyl)pyridin-3-ylamino)quinolin-3-yl)methanone], the IC50 with HT-1197 cells was 14 µM; on MELK, 0.018 µM; with T47D cells, 0.55 µM; in the test on A549 cells, 0.7 µM; with DU4475 cells, 0.32 µM.
Taken in the same sequence, the figures for `COc1cc(-c2ccc3ncc(C(=O)C4CC4)c(Nc4ccc(CN5CCN(C)CC5)nc4)c3c2)cc(Cl)c1O` [Example 683, (6-(3-chloro-4-hydroxy-5-methoxyphenyl)-4-(6-((4-methylpiperazin-1-yl)methyl)pyridin-3-ylamino)quinolin-3-yl)(cyclopropyl)methanone] were 9.8 µM, 0.016 µM, 0.69 µM, 1.2 µM and 1.3 µM.
Taken in the same sequence, the figures for `CN1CCN(Cc2ccc(Nc3c(C(=O)C4CC4)cnc4ccc(-c5cc(F)c(O)c(Cl)c5)cc34)cn2)CC1` [Example 684, (6-(3-chloro-5-fluoro-4-hydroxyphenyl)-4-(6-((4-methylpiperazin-1-yl)methyl)pyridin-3-ylamino)quinolin-3-yl)(cyclopropyl)methanone] were 15 µM, 0.05 µM, 0.88 µM, 1.5 µM and 0.82 µM.
As for `CNC[C@H]1CC[C@H](Nc2c(C(=O)C3CC3)cnc3ccc(-c4cc(Cl)c(O)c(Cl)c4)cc23)CC1` [Example 685, cyclopropyl(6-(3,5-dichloro-4-hydroxyphenyl)-4-((trans-4-((methylamino)methyl)cyclohexyl)amino)quinolin-3-yl)methanone], the IC50 with HT-1197 cells was determined as 0.73 µM; at MELK, 0.0016 µM; in the test with T47D cells it was 0.054 µM; with A549 cells, 0.14 µM; with DU4475 cells it was 0.018 µM.
On to `COC1CCN(C2CCC(Nc3c(C(=O)C4CC4)cnc4ccc(-c5cc(F)c(O)c(Cl)c5)cc34)CC2)C1` (centres unmarked) [Example 686, (6-(3-chloro-5-fluoro-4-hydroxyphenyl)-4-(4-(3-methoxypyrrolidin-1-yl)cyclohexylamino)quinolin-3-yl)(cyclopropyl)methanone], for which the IC50 in the test with HT-1197 cells is 1.1 µM; on MELK it was 0.0035 µM; in the test with T47D cells it was 0.19 µM; in the test on A549 cells it was 0.17 µM; in the test with DU4475 cells it was 0.16 µM.
Taken in the same sequence, the figures for `COc1cc(-c2ccc3ncc(C(=O)C4CC4)c(NC4CCC(N5CCC(OC)C5)CC4)c3c2)cc(Cl)c1O` (centres unmarked) [Example 687, (6-(3-chloro-4-hydroxy-5-methoxyphenyl)-4-(4-(3-methoxypyrrolidin-1-yl)cyclohexylamino)quinolin-3-yl)(cyclopropyl)methanone] were 3.3 µM, 0.0033 µM, 0.63 µM, 0.45 µM and 0.33 µM.
Taken in the same sequence, the figures for `COc1cc(-c2ccc3ncc(C(C)=O)c(Nc4ccc(N5CCCC(N)C5)nc4)c3c2)cc(Cl)c1O` (centres unmarked) [Example 688, 1-(4-(6-(3-aminopiperidin-1-yl)pyridin-3-ylamino)-6-(3-chloro-4-hydroxy-5-methoxyphenyl)quinolin-3-yl)ethanone] were 1.7 µM, 0.0032 µM, 0.056 µM, 0.23 µM and 0.11 µM.
As to `COc1cc(-c2ccc3ncc(C(=O)C4CC4)c(Nc4ccc(N5CCC(N(C)C)C5)nc4)c3c2)cc(Cl)c1O` (centres unmarked) [Example 689], the half-maximal inhibitory concentration (IC50) came out at 9.4 µM in the test with HT-1197 cells; 0.013 µM at MELK; 0.28 µM in the test on T47D cells; 1.5 µM in the test with A549 cells; 3.2 µM in the test on DU4475 cells.
In the case of `CN(C)C1CCN(c2ccc(Nc3c(C(=O)C4CC4)cnc4ccc(-c5cc(Cl)c(O)c(Cl)c5)cc34)cn2)C1` (centres unmarked) [Example 690, cyclopropyl(6-(3,5-dichloro-4-hydroxyphenyl)-4-(6-(3-(dimethylamino)pyrrolidin-1-yl)pyridin-3-ylamino)quinolin-3-yl)methanone], the 50% inhibitory concentration (IC50) was found to be 4 µM in the test with HT-1197 cells; 0.0047 µM on MELK; 0.25 µM in the test with T47D cells; 0.3 µM with A549 cells; 0.19 µM in the test on DU4475 cells.
In the case of `CN(C)C1CCN(c2ccc(Nc3c(C(=O)C4CC4)cnc4ccc(-c5cc(F)c(O)c(Cl)c5)cc34)cn2)C1` (centres unmarked) [Example 691, (6-(3-chloro-5-fluoro-4-hydroxyphenyl)-4-(6-(3-(dimethylamino)pyrrolidin-1-yl)pyridin-3-ylamino)quinolin-3-yl)(cyclopropyl)methanone], the half-inhibitory concentration (IC50) in the test with HT-1197 cells was determined as 5.9 µM; at MELK, 0.012 µM; with T47D cells, 0.18 µM; with A549 cells, 0.32 µM; in the test with DU4475 cells, 0.22 µM.
Taken in the same sequence, the figures for `COc1cc(-c2ccc3ncc(C(=O)C4CC4)c(Nc4cccc(CCN(C)C)c4)c3c2)cc(Cl)c1O` [Example 692, (6-(3-chloro-4-hydroxy-5-methoxyphenyl)-4-(3-(2-(dimethylamino)ethyl)phenylamino)quinolin-3-yl)(cyclopropyl)methanone] were 5.9 µM, 0.0056 µM, 1 µM, 0.37 µM and 0.3 µM.
Taken in the same sequence, the figures for `CN(C)CCc1cccc(Nc2c(C(=O)C3CC3)cnc3ccc(-c4cc(F)c(O)c(Cl)c4)cc23)c1` [Example 693, {6-(3-Chloro-5-fluoro-4-hydroxyphenyl)-4-[3-(2-(dimethylamino)ethyl)phenylamino]quinolin-3-yl}(cyclopropyl)methanone] were 10 µM, 0.0083 µM, 0.37 µM, 0.09 µM and 0.085 µM.
Regarding `CN(C)C1CCN(Cc2ccc(Nc3c(C(=O)C4CC4)cnc4ccc(-c5cc(F)c(O)c(Cl)c5)cc34)cc2)C1` (centres unmarked) [Example 696, (6-(3-chloro-5-fluoro-4-hydroxyphenyl)-4-(4-((3-(dimethylamino)pyrrolidin-1-yl)methyl)phenylamino)quinolin-3-yl)(cyclopropyl)methanone], the IC50 was found to be 5.4 µM in the test on HT-1197 cells; 0.012 µM at MELK; 0.46 µM in the test with T47D cells; 0.18 µM in the test on A549 cells; 0.17 µM with DU4475 cells.

These data come from patent US9120749B2, “Quinoline derivatives and MELK inhibitors containing the same” (ONCOTHERAPY SCIENCE, INC., priority 2010, dated 2015).
